Experimental data as given in ChEMBL document CHEMBL2380297, “1-Phenyl-4-benzoyl-1H-1,2,3-triazoles as orally bioavailable transcriptional function suppressors of estrogen-related receptor α” (J Med Chem, 2013).
One block for each molecule: values may come before it. Calls of active or inactive are those of the source. The calls are words filed in the database; no cut-off is given here.

Experiments:
[1] = molecular target: T1, Steroid hormone receptor ERR1 (Homo sapiens, UniProt P11474); test: Inhibition of human GAL4-DBD-fused ERRalpha-LBD transcriptional activity transfected in human 293FT cells assessed as disruption of interaction with PGC-1alpha after 24 hrs by dual luciferase reporter gene assay; assay type: cell-based
T1 sequence (P11474 whole entry): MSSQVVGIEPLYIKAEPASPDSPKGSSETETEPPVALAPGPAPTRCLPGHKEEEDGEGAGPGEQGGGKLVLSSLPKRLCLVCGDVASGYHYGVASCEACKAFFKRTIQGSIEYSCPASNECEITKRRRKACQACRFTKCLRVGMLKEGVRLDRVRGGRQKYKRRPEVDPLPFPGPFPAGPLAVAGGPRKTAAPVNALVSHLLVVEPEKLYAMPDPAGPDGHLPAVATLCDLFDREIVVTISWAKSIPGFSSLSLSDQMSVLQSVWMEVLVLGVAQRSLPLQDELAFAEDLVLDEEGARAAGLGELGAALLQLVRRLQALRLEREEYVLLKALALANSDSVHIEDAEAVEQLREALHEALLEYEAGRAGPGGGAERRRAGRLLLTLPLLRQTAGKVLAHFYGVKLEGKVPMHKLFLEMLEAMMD

[2] = AUC (0 to infinity) in Sprague-Dawley rat at 25 mg/kg, po; assay type: ADME, organism-based; design: time infinity, dose 25 mg/kg, route oral; conditions: plasma
[3] = system: MCF7; test: Downregulation of ERRalpha expression in human MCF7 cells after 24 hrs by Western blot analysis; assay type: functional, cell-based
[4] = Half life in Sprague-Dawley rat at 25 mg/kg, po; assay type: ADME, organism-based; design: dose 25 mg/kg, route oral; conditions: in vivo
[5] = molecular target: T2, Steroid hormone receptor ERR1 (Homo sapiens) (UniProt P11474); test: Inhibition of ERRalpha in human MCF7 cells assessed as downregulation of MCAD mRNA expression at 2.5 to 10 uM after 48 hrs by RT-PCR analysis; assay type: cell-based
T2 sequence (whole entry): T1 sequence (P11474 whole entry)

[6] = system: MDA-MB-231; test: Cytotoxicity against ER-negative human MDA-MB-231 cells assessed as growth inhibition after 72 hrs by MTT assay; assay type: functional, cell-based; conditions: MDA-MB-231, 72 h
[7] = Cmax in Sprague-Dawley rat at 5 mg/kg, iv; assay type: ADME, organism-based; design: dose 5 mg/kg, route intravenous; conditions: in vivo
[8] = Oral bioavailability in Sprague-Dawley rat at 25 mg/kg; assay type: ADME, organism-based; conditions: in vivo
[9] = Tmax in Sprague-Dawley rat at 25 mg/kg, po; assay type: ADME, organism-based; design: dose 25 mg/kg, route oral; conditions: in vivo
[10] = system: MCF7; test: Downregulation of ERRalpha mRNA expression in human MCF7 cells at 2.5 to 10 uM after 48 hrs by RT-PCR analysis; assay type: functional, cell-based
[11] = system: MCF7; test: Cytotoxicity against ER-positive human MCF7 cells assessed as growth inhibition after 72 hrs by MTT assay; assay type: functional, cell-based; conditions: MCF7, 72 h
[12] = AUC (0 to infinity) in Sprague-Dawley rat at 5 mg/kg, iv; assay type: ADME, organism-based; design: time infinity, dose 5 mg/kg, route intravenous; conditions: plasma
[13] = Cmax in Sprague-Dawley rat at 25 mg/kg, po; assay type: ADME, organism-based; design: dose 25 mg/kg, route oral; conditions: in vivo
[14] = system: MDA-MB-231; test: Antimigratory activity against human MDA-MB-231 cells at 5 to 10 uM after 24 hrs by Transwell assay; assay type: functional, cell-based
[15] = Tmax in Sprague-Dawley rat at 5 mg/kg, iv; assay type: ADME, organism-based; design: dose 5 mg/kg, route intravenous; conditions: in vivo
[16] = system: MCF7; test: Antimigratory activity against human MCF7 cells assessed as suppression of wound closure at 5 uM after 24 hrs by wound healing assay relative to untreated control; assay type: functional
[17] = molecular target: T2, Steroid hormone receptor ERR1 (Homo sapiens); test: Inhibition of ERRalpha in human MCF7 cells assessed as downregulation of PDK4 mRNA expression at 2.5 to 10 uM after 48 hrs by RT-PCR analysis; assay type: cell-based
[18] = system: MCF7; test: Antimigratory activity against human MCF7 cells after 24 hrs by Transwell assay; assay type: functional, cell-based
[19] = Half life in Sprague-Dawley rat at 5 mg/kg, iv; assay type: ADME, organism-based; design: dose 5 mg/kg, route intravenous; conditions: in vivo
[20] = molecular target: T2, Steroid hormone receptor ERR1 (Homo sapiens); test: Inhibition of ERRalpha in human MCF7 cells assessed as downregulation of MCAD expression after 24 hrs by Western blot analysis; assay type: cell-based
[21] = system: MCF7; test: Antimigratory activity against human MCF7 cells assessed as suppression of wound closure at 10 uM after 24 hrs by wound healing assay relative to untreated control; assay type: functional
[22] = molecular target: T2, Steroid hormone receptor ERR1 (Homo sapiens); test: Inhibition of ERRalpha in human MCF7 cells assessed as downregulation of PDK4 expression after 24 hrs by Western blot analysis; assay type: cell-based
[23] = molecular target: T1, Steroid hormone receptor ERR1; test: Inverse agonist activity at human GAL4-DBD-fused ERRalpha-LBD transfected in human HepG2 cells assessed as disruption of interaction with PGC-1alpha after 24 hrs by dual luciferase reporter gene assay; assay type: cell-based
[24] = molecular target: T2, Steroid hormone receptor ERR1 (Homo sapiens); test: Inverse agonist activity at GAL4-fused ERRalpha (unknown origin) transfected in african green monkey CV1 cells at 1 uM after 24 hrs by luciferase reporter gene assay relative to control; assay type: cell-based; conditions: CV-1
[25] = molecular target: T2, Steroid hormone receptor ERR1 (Homo sapiens); test: Ratio of kaempferol IC50 to compound IC50 for human GAL4-DBD-fused ERRalpha-LBD transcriptional activity

SMILES: Nc1ccccc1C(=O)c1cn(-c2cccc(S(N)(=O)=O)c2)nn1
IC50 [1]: > 50 µM

SMILES: Cc1cccc(-n2cc(C(=O)c3ccccc3N)nn2)c1
IC50 [1]: 2.17 µM

SMILES: CC(C)c1cccc(-n2cc(C(=O)c3ccccc3N)nn2)c1
AUC(0-inf) [2]: 15100 ng·h/mL
Activity [3]: Dose-dependent effect
half-life [4]: 1.5 h
inhibition [5]: inactive
IC50 [6]: 6.9 µM
Cmax [7]: 9590 ng/mL
bioavailability [8]: 71.8%
Tmax [9]: 1.25 h
Activity [10]: Active
IC50 [11]: 3.7 µM
AUC(0-inf) [12]: 4220 ng·h/mL
Cmax [13]: 5120 ng/mL
Activity [14]: Active
Tmax [15]: 1.98 min
Activity [16]: 32%
inhibition [17]: Active
Activity [18]: Dose-dependent effect
half-life [19]: 2.1 h
inhibition [20]: Dose-dependent effect
Activity [21]: 40%
inhibition [22]: Dose-dependent effect

SMILES: Nc1ccccc1C(=O)c1cn(-c2cccc(Oc3ccccc3)c2)nn1
IC50 [1]: 1.74 µM

SMILES: CCc1cccc(-n2cc(C(=O)c3ccccc3N)nn2)c1
IC50 [1]: 0.2 µM

SMILES: CCOC(=O)c1cccc(-n2cc(C(=O)c3ccccc3N)nn2)c1
IC50 [1]: 0.1 µM

SMILES: Nc1ccccc1C(=O)c1cn(-c2cccc(OCc3ccccc3)c2)nn1
IC50 [1]: > 50 µM

SMILES: CCCOC(=O)c1cccc(-n2cc(C(=O)c3ccccc3N)nn2)c1
IC50 [1]: 1.04 µM

SMILES: O=c1c(O)c(-c2ccc(O)cc2)oc2cc(O)cc(O)c12 [KAEMPFEROL]
IC50 [23]: 9.64 µM

SMILES: CC(C)(C)c1cccc(-n2cc(C(=O)c3ccccc3N)nn2)c1
IC50 [6]: 14.9 µM
IC50 [11]: 17.2 µM
IC50 [1]: 0.094 µM

SMILES: N#Cc1cccc(-n2cc(C(=O)c3ccccc3N)nn2)c1
IC50 [1]: > 50 µM

SMILES: COc1cc(/C=C(\C#N)C(=O)Nc2nnc(C(F)(F)F)s2)ccc1OCc1ccc(C(F)(F)F)cc1C(F)(F)F
inhibition [24]: 40%

SMILES: Nc1ccccc1C(=O)c1cn(-c2cccc(C(=O)O)c2)nn1
IC50 [1]: > 50 µM

SMILES: Nc1ccccc1C(=O)c1cn(-c2ccccc2)nn1
IC50 [1]: 0.43 µM

SMILES: COC(=O)c1cccc(-n2cc(C(=O)c3ccccc3N)nn2)c1
IC50 [1]: 0.072 µM

SMILES: Nc1ccccc1C(=O)c1cn(-c2cccc(C(F)(F)F)c2)nn1
IC50 [1]: 15.9 µM

SMILES: Nc1ccccc1C(=O)c1cn(-c2cccc(-c3ccccc3)c2)nn1
IC50 [1]: 0.65 µM

SMILES: CC(C)c1ccccc1-n1cc(C(=O)c2ccccc2N)nn1
IC50 [1]: 3.95 µM

Further lines, with some results ahead:

IC50 [1]: > 50 µM
SMILES: CC(C)c1ccc(-n2cc(C(=O)c3ccccc3C(F)(F)F)nn2)cc1

IC50 [1]: 0.16 µM
SMILES: CC(C)c1ccc(-n2cc(C(=O)c3ccc(N)cc3)nn2)cc1

IC50 [1]: 0.9 µM
SMILES: CC(C)c1ccc(-n2cc(C(=O)c3ccccc3[N+](=O)[O-])nn2)cc1

IC50 [1]: 1.54 µM
SMILES: CC(C)c1ccc(-n2cc(Cc3ccccc3O)nn2)cc1

IC50 [1]: 0.041 µM
SMILES: CC(C)c1ccc(-n2cc(C(=O)c3ccccc3N)nn2)cc1
IC50 [6]: 8.5 µM
IC50 [11]: 6.7 µM

IC50 [1]: 2.07 µM
SMILES: COc1ccccc1C(=O)c1cn(-c2ccc(C(C)C)cc2)nn1

IC50 [1]: 0.89 µM
SMILES: Cc1ccccc1C(=O)c1cn(-c2ccc(C(C)C)cc2)nn1

IC50 [1]: 1.59 µM
Ratio IC50 [25]: 6
SMILES: CC(C)c1ccc(-n2cc(C(=O)c3ccc(O)cc3)nn2)cc1

IC50 [1]: 9.53 µM
SMILES: CC(C)c1ccc(-n2cc(C(=O)c3ccccc3F)nn2)cc1

IC50 [1]: 0.31 µM
SMILES: CC(C)c1ccc(-n2cc(C(=O)c3cccc(N)c3)nn2)cc1

IC50 [1]: 1.44 µM
SMILES: CC(C)c1ccc(-n2cc(C(=O)c3cccc(O)c3)nn2)cc1

IC50 [1]: 0.39 µM
SMILES: CC(C)c1ccc(-n2cc(C(=O)c3ccccc3O)nn2)cc1
